Measurements as given in PubChem BioAssay AID2060912 (Molecular Pharmacology Branch, DTP, NCI, 2025).

Test system: HUVEC/MSC spheroids viability
Assay: Human HUVEC/MSC cell line growth inhibition [KRAS2];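 as to viability, T/C: percent of DMSO vehicle control luminescence so 100% = untreated viability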
Details: for viability, T/C: stronger effect = lower value
Method in brief: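 Spheroids of pooled-donor HUVEC and hMSC (passage ≤5) without tumour cells were treated with KRAS-pathway inhibitors alone and combined with targeted agents. Top concentration was at or near clinical Cmax, or 10 microM when Cmax was unknown, descending in half-log steps.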

CC(=O)Nc1cccc(-n2c(=O)n(C3CC3)c(=O)c3c(Nc4ccc(I)cc4F)n(C)c(=O)c(C)c32)c1 + C=CC(=O)N1CCN(c2nc(OCC3CCCN3C)nc3c2CCN(c2cccc4cccc(C)c24)C3)CC1CC#N
IC50 (curve of first compound, second compound 0.00949 µM): 18.9 nM | IC50 (curve of first compound, second compound 0.03 µM): 17.3 nM | IC50 (curve of first compound, second compound 0.0949 µM): 15.4 nM | IC50 (curve of first compound, second compound 0.3 µM): 13.4 nM | IC50 (curve of first compound, second compound 0.949 µM): 15.3 nM | IC50 (curve of first compound, second compound 3 µM): 1.85 nM | viability, T/C (second compound 0.00949 µM, first compound 94.9 pM): 95.3% | viability, T/C (second compound 0.00949 µM, first compound 0.0003 µM): 129% | viability, T/C (second compound 0.00949 µM, first compound 0.000949 µM): 125% | viability, T/C (second compound 0.00949 µM, first compound 0.003 µM): 116% | viability, T/C (second compound 0.00949 µM, first compound 0.00949 µM): 90.5% | viability, T/C (second compound 0.00949 µM, first compound 0.03 µM): 23% | viability, T/C (second compound 0.03 µM, first compound 94.9 pM): 104% | viability, T/C (second compound 0.03 µM, first compound 0.0003 µM): 116% | viability, T/C (second compound 0.03 µM, first compound 0.000949 µM): 112% | viability, T/C (second compound 0.03 µM, first compound 0.003 µM): 115% | viability, T/C (second compound 0.03 µM, first compound 0.00949 µM): 83.8% | viability, T/C (second compound 0.03 µM, first compound 0.03 µM): 18.9% | viability, T/C (second compound 0.0949 µM, first compound 94.9 pM): 97.7% | viability, T/C (second compound 0.0949 µM, first compound 0.0003 µM): 130% | viability, T/C (second compound 0.0949 µM, first compound 0.000949 µM): 133% | viability, T/C (second compound 0.0949 µM, first compound 0.003 µM): 94.9% | viability, T/C (second compound 0.0949 µM, first compound 0.00949 µM): 71.5% | viability, T/C (second compound 0.0949 µM, first compound 0.03 µM): 23.5% | viability, T/C (second compound 0.3 µM, first compound 94.9 pM): 67% | viability, T/C (second compound 0.3 µM, first compound 0.0003 µM): 98.3% | viability, T/C (second compound 0.3 µM, first compound 0.000949 µM): 114% | viability, T/C (second compound 0.3 µM, first compound 0.003 µM): 97.8% | viability, T/C (second compound 0.3 µM, first compound 0.00949 µM): 63.6% | viability, T/C (second compound 0.3 µM, first compound 0.03 µM): 18.6% | viability, T/C (second compound 0.949 µM, first compound 94.9 pM): 84.9% | viability, T/C (second compound 0.949 µM, first compound 0.0003 µM): 91.8% | viability, T/C (second compound 0.949 µM, first compound 0.000949 µM): 108% | viability, T/C (second compound 0.949 µM, first compound 0.003 µM): 86.7% | viability, T/C (second compound 0.949 µM, first compound 0.00949 µM): 73.4% | viability, T/C (second compound 0.949 µM, first compound 0.03 µM): 17.2% | viability, T/C (second compound 3 µM, first compound 94.9 pM): 96.2% | viability, T/C (second compound 3 µM, first compound 0.0003 µM): 105% | viability, T/C (second compound 3 µM, first compound 0.000949 µM): 73.8% | viability, T/C (second compound 3 µM, first compound 0.003 µM): 32.6% | viability, T/C (second compound 3 µM, first compound 0.00949 µM): 2.04% | viability, T/C (second compound 3 µM, first compound 0.03 µM): 1.27%

C=CC(=O)N1CCN(c2nc(=O)n(-c3c(C)ccnc3C(C)C)c3nc(-c4c(O)cccc4F)c(F)cc23)C(C)C1 (configuration not stated)
viability, T/C (compound 0.0316 µM): 99.5% [middle of 9 runs] | viability, T/C (compound 10 µM): 117% [middle of 9 runs] | IC50 (compound alone, run of 05/05/2024): > 10000 nM

COc1cc2nccc(Oc3ccc(NC(=O)C4(C(=O)Nc5ccc(F)cc5)CC4)cc3)c2cc1OC + CNCc1ccccc1-c1csc(C(C)Nc2nc(C)nc3cc(OC)c(OC)cc23)c1
IC50 (curve of first compound, second compound 0.0316 µM): 5900 nM | IC50 (curve of first compound, second compound 0.1 µM): 5670 nM | IC50 (curve of first compound, second compound 0.316 µM): 6100 nM | IC50 (curve of first compound, second compound 1 µM): 4980 nM | IC50 (curve of first compound, second compound 3.16 µM): 1840 nM | IC50 (curve of first compound, second compound 10 µM): < 31.6 nM | viability, T/C (second compound 0.0316 µM, first compound 0.0316 µM): 87.7% | viability, T/C (second compound 0.0316 µM, first compound 0.1 µM): 86.5% | viability, T/C (second compound 0.0316 µM, first compound 0.316 µM): 78.2% | viability, T/C (second compound 0.0316 µM, first compound 1 µM): 65.8% | viability, T/C (second compound 0.0316 µM, first compound 3.16 µM): 84.2% | viability, T/C (second compound 0.0316 µM, first compound 10 µM): 24.3% | viability, T/C (second compound 0.1 µM, first compound 0.0316 µM): 67% | viability, T/C (second compound 0.1 µM, first compound 0.1 µM): 88.8% | viability, T/C (second compound 0.1 µM, first compound 0.316 µM): 87% | viability, T/C (second compound 0.1 µM, first compound 1 µM): 81% | viability, T/C (second compound 0.1 µM, first compound 3.16 µM): 78.2% | viability, T/C (second compound 0.1 µM, first compound 10 µM): 22.7% | viability, T/C (second compound 0.316 µM, first compound 0.0316 µM): 86.6% | viability, T/C (second compound 0.316 µM, first compound 0.1 µM): 90.9% | viability, T/C (second compound 0.316 µM, first compound 0.316 µM): 72% | viability, T/C (second compound 0.316 µM, first compound 1 µM): 71.2% | viability, T/C (second compound 0.316 µM, first compound 3.16 µM): 81.4% | viability, T/C (second compound 0.316 µM, first compound 10 µM): 27.1% | viability, T/C (second compound 1 µM, first compound 0.0316 µM): 69.6% | viability, T/C (second compound 1 µM, first compound 0.1 µM): 67.3% | viability, T/C (second compound 1 µM, first compound 0.316 µM): 66.6% | viability, T/C (second compound 1 µM, first compound 1 µM): 97.6% | viability, T/C (second compound 1 µM, first compound 3.16 µM): 99.7% | viability, T/C (second compound 1 µM, first compound 10 µM): 3.5% | viability, T/C (second compound 3.16 µM, first compound 0.0316 µM): 96.7% | viability, T/C (second compound 3.16 µM, first compound 0.1 µM): 104% | viability, T/C (second compound 3.16 µM, first compound 0.316 µM): 108% | viability, T/C (second compound 3.16 µM, first compound 1 µM): 115% | viability, T/C (second compound 3.16 µM, first compound 3.16 µM): 0.31% | viability, T/C (second compound 3.16 µM, first compound 10 µM): 0.22% | viability, T/C (second compound 10 µM, first compound 0.0316 µM): 0.36% | viability, T/C (second compound 10 µM, first compound 0.1 µM): 0.41% | viability, T/C (second compound 10 µM, first compound 0.316 µM): 0.99% | viability, T/C (second compound 10 µM, first compound 1 µM): 0.46% | viability, T/C (second compound 10 µM, first compound 3.16 µM): 0.43% | viability, T/C (second compound 10 µM, first compound 10 µM): 0.25%

CC(=O)Nc1cccc(-n2c(=O)n(C3CC3)c(=O)c3c(Nc4ccc(I)cc4F)n(C)c(=O)c(C)c32)c1
viability, T/C (compound 94.9 pM): 110% [middle of 5 runs] | viability, T/C (compound 0.000949 µM): 118% [middle of 5 runs] | viability, T/C (compound 0.00949 µM): 71.8% [middle of 5 runs] | viability, T/C (compound 0.03 µM): 17.6% [middle of 5 runs] | IC50 (curve of compound): 14.7 nM [middle of 5 runs]
